Tests used:
[1] = test system: healthy, drug-free male volunteers; assay: Safety and tolerability of noribogaine in healthy humans (adverse events, vital signs, ECG); type: in vivo, human
Description: (§1) Pulse oximetry and capnography data were collected continuously using a GE Carescape B650 monitoring system from 2 hours prior to dosing and until six hours after dosing, and thereafter at 12, 24, 48 and 72 hours post-dosing. Additional oximetry data were collected at 120, 168 and 216 hours. Pupillary miosis was assessed by pupillometry. Dark-adapted pupil diameter was measured in triplicate using a Neuroptics PLR-200 pupillometer under standardized light intensity (<5 lux) pre-dose, and at 2, 4, 6, 12, 24, 48, 72, 96, 120, 168 and 216 hours post-dosing.
(§2) Safety and tolerability of noribogaine were tested in the group of volunteers from Example 1. Cold pressor testing was conducted in 1° C. water according to the method of Mitchell et al. (J Pain 5:233-237, 2004) pre-dose, 6, 24, 48, 72 and 216 hours post-dosing. Safety evaluations included clinical monitoring, recording of adverse events (AEs), safety laboratory tests, vital signs, ECG telemetry from −2 h to 6 h after dosing, and 12-lead electrocardiograms (ECGs) up to 216 hours post-dosing.

[2] = test system: healthy, drug-free male volunteers; assay: Cold pressor test (analgesic effect); type: in vivo, human; conditions: adjusted for baseline
Description: (§3) Summary statistics (means, standard deviations, and coefficients of variation) were determined for each dose group for safety laboratory test data, ECG and pharmacokinetic parameters, and pharmacodynamic variables. Categorical variables were analysed using counts and percentages. Dose-proportionality of AUC and Cmax was assessed using linear regression. The effect of dose on pharmacodynamic parameter values over time was assessed using two-factor analysis of variance (ANOVA). Pairwise comparisons (with Tukey-Kramer adjustment) between each dose group to the placebo were conducted at each time point using the least squares estimates obtained from the ANOVA, using SAS Proc Mixed (SAS ver 6.0).
Analgesic effect was assessed based on duration of hand immersion in ice water and on visual analog scale (VAS) pain scores upon hand removal from the water bath.
as §2

[3] = test system: opioid-dependent participants; assay: Opiate withdrawal scales (COWS, SOWS, OOWS); type: in vivo, human; conditions: first six hours following dosing
Description: Patients were evaluated based on the Clinical Opiate Withdrawal Scale (COWS), Subjective Opiate Withdrawal Scale (SOWS), and Objective Opiate Withdrawal Scale (OOWS) scoring systems over the period of time between administration of noribogaine (or placebo) until resumption of OST. These scales are outlined in Guidelines for the Psychosocially Assisted Pharmacological Treatment of Opioid Dependence, World Health Organization, Geneva (2009), Annex 10, which is incorporated herein by reference in its entirety. The scales measure the intensity of withdrawal symptoms, based on clinical, subjective, and objective indicia.

[4] = test system: opioid-dependent participants; assay: Time to resumption of morphine (opioid substitution treatment, OST); type: in vivo, human
[5] = test system: healthy, drug-free male volunteers; assay: Pupillometry (pupillary miosis, dark-adapted pupil diameter); type: in vivo, human; conditions: adjusted for baseline, p>0.9
Description: as §1, §3

[6] = Pharmacokinetics in opioid-dependent patients (Phase IB study, serum noribogaine); conditions: 60, 120, 180 mg

In the case of `CC[C@H]1CC2C[C@H]3c4[nH]c5ccc(O)cc5c4CCN(C2)C13` [noribogaine], the adverse events reported ([1]; 3 mg dose group) is reported as “five adverse events were reported by two subjects”, the adverse events reported ([1]; 10 mg dose group) is reported as “one adverse event was reported by single subjects” and the adverse events reported ([1]; 30 mg dose group) is reported as “one adverse event was reported by single subjects”. The “changes in oximetry, capnography, respiratory rate” value ([1]; 3-60 mg) was “no changes in oximetry or capnography, or changes in respiratory rate”, the “changes in vital signs or safety laboratory tests” value ([1]; 3-60 mg) was “no changes in vital signs or safety laboratory tests of note” and the “VAS pain scores, each dose group vs placebo by ANOVA” value ([2]; p=0.17) was “no statistically significant differences”. The “duration of hand immersion, each dose group vs placebo by ANOVA” value ([2]; p>0.9) was “no statistically significant differences”, the “withdrawal symptoms (COWS, OOWS, SOWS)” value ([3]; 120 mg) was “fewer withdrawal symptoms than the other patients” and the “withdrawal symptoms, noribogaine vs placebo” value ([3]; 60, 120, 180 mg) was “placebo generally experienced more withdrawal symptoms than patients who were administered noribogaine”. The “Time to resumption of OST” value ([4]; 180 mg, longer than untreated patients (7 hours, not shown) or 60 mg) was > 7 h, the “average time to resumption of opioids” value ([4]; single 120 mg dose) was “greater than 20 hours” and the “pupil diameter, each dose group vs placebo by ANOVA” value [5] was “no statistically significant differences”. The “Maximum serum concentration of noribogaine (Cmax), dose dependence” value [6] was “increased in a dose-dependent manner”.

Source: patent US20150342959A1, “METHODS AND COMPOSITIONS FOR SUSTAINED N[…]” (DemeRx, Inc., priority 2014, published 2015)
